Data taken from article PMC4763718 (MedChemComm, 2015).

Molecular target: T1, cyclin G associated kinase (GAK) (Homo sapiens, UniProt O14976)
T1 sequence (O14976 1-1311): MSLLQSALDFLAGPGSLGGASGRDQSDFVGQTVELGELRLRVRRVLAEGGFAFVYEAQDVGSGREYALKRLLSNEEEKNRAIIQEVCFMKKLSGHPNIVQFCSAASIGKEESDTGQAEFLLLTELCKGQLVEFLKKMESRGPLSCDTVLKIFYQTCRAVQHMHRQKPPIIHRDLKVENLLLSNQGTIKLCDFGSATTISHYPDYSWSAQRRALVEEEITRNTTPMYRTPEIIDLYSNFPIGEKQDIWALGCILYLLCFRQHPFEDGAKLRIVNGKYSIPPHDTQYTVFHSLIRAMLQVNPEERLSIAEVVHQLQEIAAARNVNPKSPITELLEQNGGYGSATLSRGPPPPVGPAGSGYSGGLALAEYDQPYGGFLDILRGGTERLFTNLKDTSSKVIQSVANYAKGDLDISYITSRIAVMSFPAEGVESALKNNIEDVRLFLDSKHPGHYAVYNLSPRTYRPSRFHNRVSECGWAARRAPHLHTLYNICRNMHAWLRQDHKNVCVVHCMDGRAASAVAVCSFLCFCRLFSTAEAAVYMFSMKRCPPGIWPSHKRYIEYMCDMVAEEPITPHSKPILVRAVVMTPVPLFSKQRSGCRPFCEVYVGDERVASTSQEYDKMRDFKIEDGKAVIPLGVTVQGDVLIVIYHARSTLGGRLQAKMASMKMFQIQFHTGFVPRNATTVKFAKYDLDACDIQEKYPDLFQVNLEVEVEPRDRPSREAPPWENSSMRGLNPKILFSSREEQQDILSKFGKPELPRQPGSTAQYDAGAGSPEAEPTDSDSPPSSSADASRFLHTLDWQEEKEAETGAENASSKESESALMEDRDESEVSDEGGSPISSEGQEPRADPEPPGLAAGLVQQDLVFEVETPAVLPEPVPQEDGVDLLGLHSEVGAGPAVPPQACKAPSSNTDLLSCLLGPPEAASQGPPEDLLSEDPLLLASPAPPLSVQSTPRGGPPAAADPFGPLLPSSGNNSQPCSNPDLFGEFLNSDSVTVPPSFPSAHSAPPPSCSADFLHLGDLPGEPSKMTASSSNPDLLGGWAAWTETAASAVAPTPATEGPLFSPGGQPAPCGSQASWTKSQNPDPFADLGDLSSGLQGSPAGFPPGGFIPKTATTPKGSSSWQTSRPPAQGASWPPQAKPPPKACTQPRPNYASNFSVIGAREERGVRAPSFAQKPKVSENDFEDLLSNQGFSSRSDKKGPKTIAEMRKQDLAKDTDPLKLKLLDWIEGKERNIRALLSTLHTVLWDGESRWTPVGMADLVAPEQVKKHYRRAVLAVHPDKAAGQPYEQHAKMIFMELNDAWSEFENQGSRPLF
Assay: KINOMEscan competition binding assay

| SMILES | GAK affinity (in words) |
| --- | --- |
| COc1ccc(-c2cnc3c(NC(=O)C4CC=CC4)snc3c2)cc1OC [Compound 5g] | reduced the affinity to GAK |
| COc1ccc(-c2cnc3c(NC(=O)C4CCCCCC4)snc3c2)cc1OC [Compound 5h] | reduced the affinity to GAK |
| COc1ccc(-c2cnc3c(NC(=O)C4CCOCC4)snc3c2)cc1OC [Compound 5i] | reduced the affinity to GAK |
| CCCCCOc1snc2cc(-c3ccc(OC)c(OC)c3)cnc12 [Compound 8e] | completely abolished GAK affinity |
| COc1ccc(-c2cnc3c(N4CCN(C(C)C)CC4)snc3c2)cc1OC [Compound 8l] | did not lead to any improvement in GAK affinity |
| CCCCN1CCN(c2snc3cc(-c4ccc(OC)c(OC)c4)cnc23)CC1 [Compound 8m] | did not lead to any improvement in GAK affinity |
| COc1ccc(-c2cnc3c(N4CCN(c5ccncc5)CC4)snc3c2)cc1OC [Compound 8n] | did not lead to any improvement in GAK affinity |
| COc1ccc(-c2cnc3c(N4CCN(C(=O)c5ccccc5)CC4)snc3c2)cc1OC [Compound 8q] | inactive |

Test system: J6/JFH(p7-Rluc2A) HCV
Assay: not given
Assay type: cell-based, hepatitis C virus

| SMILES | effect on HCV replication (in words) |
| --- | --- |
| CC(C)Oc1snc2cc(-c3ccsc3)cnc12 [Compound 8j] | minimal to no effect |
